Test results taken from patent US20090042964A1, “AMINO-5-[SUBSTITUTED-4-(DIFLUOROMETHOXY)PHENYL]-5-PHENYLIMIDAZOLONE COMPOUNDS AS BETA-SECRETASE INHIBITORS” (Wyeth, priority 2007, published 2009).
Read-outs that look alike come from different tables or passages of the source.

Molecular target: human BACE1 (Homo sapiens, UniProt P56817)
Experiment: Fluorescent kinetic assay, evaluation of BACE1 binding affinity of test compounds
Assay type: biochemical
Details: 10 nM human BACE1, 25 μM substrate WABC-6, pH 4.5, room temperature
Description: Concentration is determined by absorbance at 354 nm using an extinction coefficient of 18172 M^-1 cm^-1, the concentration of stock substrate is corrected, and the substrate stock stored in small aliquots in -80° C. […] Determination of Stock Enzyme Concentration: the stock concentration of each enzyme is determined by absorbance at 280 nm using an of 64150 M^-1 cm^-1 for hBACE1 and MuBACE1, 62870 M^-1 cm^-1 for hBACE2 in 6 M Guanidinium Hydrochloride (from Research Organics, Cat. # 5134G-2), pH 6. […] Biochem. 182, 319-326). Dilution and mixing steps: total reaction volume: 100 μL 2× inhibitor dilutions in buffer A (66.7 mM Na-Acetate, pH 4.5, 0.0667% CHAPS) were prepared, 4× enzyme dilution in buffer A (66.7 mM Na-Acetate, pH 4.5, 0.0667% CHAPS) were prepared, 100 μM substrate dilution in 1×PBS was prepared, and 50 μL 2× Inhibitor, 25 μL 100 μM substrate are added to each well of 96-well plate (from DYNEX Technologies, VWR #: 11311-046), immediately followed by 25 μL 4× enzyme (added to the inhibitor and substrate mix), and the fluorescence readings are initiated.

Sequence of human BACE1 (P56817 46-501): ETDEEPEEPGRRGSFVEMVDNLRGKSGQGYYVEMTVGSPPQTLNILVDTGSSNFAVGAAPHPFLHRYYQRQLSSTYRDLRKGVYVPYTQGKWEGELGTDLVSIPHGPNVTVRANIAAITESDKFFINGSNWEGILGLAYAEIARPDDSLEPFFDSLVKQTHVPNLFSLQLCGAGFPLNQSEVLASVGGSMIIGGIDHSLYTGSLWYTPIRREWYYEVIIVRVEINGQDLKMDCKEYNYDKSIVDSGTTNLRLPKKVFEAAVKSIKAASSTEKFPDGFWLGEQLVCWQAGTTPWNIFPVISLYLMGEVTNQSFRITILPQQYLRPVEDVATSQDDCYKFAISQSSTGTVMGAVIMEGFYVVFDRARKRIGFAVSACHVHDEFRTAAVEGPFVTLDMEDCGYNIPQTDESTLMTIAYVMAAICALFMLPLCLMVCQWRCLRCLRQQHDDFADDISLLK

Row | SMILES | IC50 (read-out: BACE1 IC50) | IC50 (BACE1 IC50 μM)
1 | CN1C(=O)C(c2ccccc2)(c2ccc(OC(F)F)c(CF)c2)N=C1N (stereo not shown) [Example 13, 2-Amino-5-[4-(difluoromethoxy)-3-(fluoromethyl)phenyl]-3-methyl-5-phenyl-3,5-dihydro-4H-imidazol-4-one] |  | 0.11 to 1 µM
2 | CCC#Cc1cc([C@]2(c3ccc(OC(F)F)c(C)c3)N=C(N)N(C)C2=O)ccc1F (single isomer, unassigned) [Example 84] | 0.11 to 1 µM | 
3 | CN1C(=O)[C@@](c2ccc(F)c(C#CCCF)c2)(c2ccc(OC(F)F)c(C3CC3)c2)N=C1N [Example 214, (5S)-2-amino-5-[3-cyclopropyl-4-(difluoromethoxy)phenyl]-5-[4-fluoro-3-(4-fluorobut-1-yn-1-yl)phenyl]-3-methyl-3,5-dihydro-4H-imidazol-4-one] | > 1 µM | 
4 | Cc1cc([C@@]2(c3cccc(C#CCCF)c3)N=C(N)N(C)C2=O)ccc1OC(F)F [Example 204, (5R)-2-amino-5-[4-(difluoromethoxy)-3-methylphenyl]-5-[3-(4-fluorobut-1-yn-1-yl)phenyl]-3-methyl-3,5-dihydro-4H-imidazol-4-one] | > 1 µM | 
5 | Cc1cc(C2(c3ccccc3)N=C(N)N(C)C2=O)cc(C)c1OC(F)F (stereo not shown) [Example 5, 2-Amino-5-[4-(difluoromethoxy)-3,5-dimethylphenyl]-3-methyl-5-phenyl-3,5-dihydro-4H-imidazol-4-one] |  | 0.11 to 1 µM
6 | CCc1cc([C@]2(c3ccccc3)N=C(N)N(C)C2=O)ccc1OC(F)F [Example 23, (5S)-2-Amino-4-[4-(difluoromethoxy)-3-ethylphenyl]-1-methyl-4-phenyl-1H-imidazol-5(4H)-one] |  | < 0.1 µM
7 | CC(C)c1cc(C2(c3ccccc3)N=C(N)N(C)C2=O)ccc1OC(F)F (stereo not shown) [Example 137, 2-Amino-5-[4-(difluoromethoxy)-3-isopropylphenyl]-3-methyl-5-phenyl-3,5-dihydro-4H-imidazol-4-one] | 0.11 to 1 µM | 
8 | CCc1cc([C@@]2(c3ccc(F)c(C#CCF)c3)N=C(N)N(C)C2=O)ccc1OC(F)F [Example 163, (5S)-2-Amino-5-[4-(difluoromethoxy)-3-ethylphenyl]-5-[4-fluoro-3-(3-fluoroprop-1-yn-1-yl)phenyl]-3-methyl-3,5-dihydro-4H-imidazol-4-one] | 0.11 to 1 µM | 
9 | Cc1cc([C@@]2(c3ccc(F)c(C#CCCF)c3)N=C(N)N(C)C2=O)ccc1OC(F)F [Example 207, (5S)-2-amino-5-[4-(difluoromethoxy)-3-methylphenyl]-5-[4-fluoro-3-(4-fluorobut-1-yn-1-yl)phenyl]-3-methyl-3,5-dihydro-4H-imidazol-4-one] | 0.11 to 1 µM | 
10 | CCCC#Cc1cc([C@]2(c3ccc(OC(F)F)c(C)c3)N=C(N)N(C)C2=O)ccc1F (single isomer, unassigned) [Example 73] | 0.11 to 1 µM | 
11 | Cc1cc([C@]2(c3ccc(F)cc3)N=C(N)N(C)C2=O)ccc1OC(F)F [Example 4A, (5S)-2-Amino-4-(4-(difluoromethoxy)-3-methylphenyl)-4-(4-fluorophenyl)-1-methyl-1H-imidazol-5(4H)-one] | > 1 µM | 
12 | CCOc1cccc(C2(c3ccc(OC(F)F)c(Cl)c3)N=C(N)N(C)C2=O)c1 (stereo not shown) [Example 36, 2-Amino-5-[3-chloro-4-(difluoromethoxy)phenyl]-5-(3-ethoxyphenyl)-3-methyl-3,5-dihydro-4H-imidazol-4-one] | 0.11 to 1 µM | 
13 | CCCc1cc(C2(c3ccccc3)N=C(N)N(C)C2=O)ccc1OC(F)F (stereo not shown) [Example 8, 2-Amino-5-[4-(difluoromethoxy)-3-propylphenyl]-3-methyl-5-phenyl-3,5-dihydro-4H-imidazol-4-one] |  | 0.11 to 1 µM
14 | CCc1cc([C@@]2(c3ccc(F)c(C#CCOC)c3)N=C(N)N(C)C2=O)ccc1OC(F)F [Example 157, (5S)-2-Amino-5-[4-(difluoromethoxy)-3-ethylphenyl]-5-[4-fluoro-3-(3-methoxyprop-1-yn-1-yl)phenyl]-3-methyl-3,5-dihydro-4H-imidazol-4-one] | 0.11 to 1 µM | 

Second part, led by results:

Row | IC50 (read-out: BACE1 IC50) | SMILES | IC50 (BACE1 IC50 μM)
15 | < 0.1 µM | Cc1cc([C@]2(c3cccc(C#CCF)c3)N=C(N)N(C)C2=O)ccc1OC(F)F [Example 201, (5S)-2-amino-5-[4-(difluoromethoxy)-3-methylphenyl]-5-[3-(3-fluoroprop-1-yn-1-yl)phenyl]-3-methyl-3,5-dihydro-4H-imidazol-4-one] | 
16 | < 0.1 µM | COCCC#Cc1cccc([C@@]2(c3ccc(OC(F)F)c(C4CC4)c3)N=C(N)N(C)C2=O)c1 (single isomer, unassigned) [Example 185] | 
17 | < 0.1 µM | CN1C(=O)C(c2ccc(F)c(C#CCCF)c2)(c2ccc(OC(F)F)c(C3CC3)c2)N=C1N (stereo not shown) [Example 208, 2-amino-5-[3-cyclopropyl-4-(difluoromethoxy)phenyl]-5-[4-fluoro-3-(4-fluorobut-1-yn-1-yl)phenyl]-3-methyl-3,5-dihydro-4H-imidazol-4-one] | 
18 | < 0.1 µM | CCC#Cc1cccc(C2(c3ccc(OC(F)F)c(C)c3)N=C(N)N(C)C2=O)c1 (stereo not shown) [Example 81, 2-amino-4-(3-(but-1-ynyl)phenyl)-4-(4-(difluoromethoxy)-3-methylphenyl)-1-methyl-1H-imidazol-5(4H)-one] | 
19 | < 0.1 µM | Cc1cc(C2(c3cccc(C#CCF)c3)N=C(N)N(C)C2=O)ccc1OC(F)F (stereo not shown) [Example 196, 2-amino-5-[4-(difluoromethoxy)-3-methylphenyl]-5-[3-(3-fluoroprop-1-yn-1-yl)phenyl]-3-methyl-3,5-dihydro-4H-imidazol-4-one] | 
20 | < 0.1 µM | CCC#Cc1cccc(C2(c3ccc(OC(F)F)c(C4CC4)c3)N=C(N)N(C)C2=O)c1 (stereo not shown) [Example 171, 2-amino-4-(3-(but-1-ynyl)phenyl)-4-(3-cyclopropyl-4-(difluoromethoxy)phenyl)-1-methyl-1H-imidazol-5(4H)-one] | 
21 | < 0.1 µM | CN1C(=O)[C@](c2cccc(C#CCF)c2)(c2ccc(OC(F)F)c(C3CC3)c2)N=C1N [Example 213, (5S)-2-amino-5-[3-cyclopropyl-4-(difluoromethoxy)phenyl]-5-[3-(3-fluoroprop-1-yn-1-yl)phenyl]-3-methyl-3,5-dihydro-4H-imidazol-4-one] | 
22 | < 0.1 µM | CCc1cc(C2(c3ccc(F)c(OCCCF)c3)N=C(N)N(C)C2=O)ccc1OC(F)F (stereo in doubt) [Example 122, (5S)-2-Amino-5-[4-(difluoromethoxy)-3-ethylphenyl]-5-[4-fluoro-3-(3-fluoropropoxy)phenyl]-3-methyl-3,5-dihydro-4H-imidazol-4-one] | 
23 | < 0.1 µM | CCc1cc([C@]2(c3ccc(F)c(C#CC(C)C)c3)N=C(N)N(C)C2=O)ccc1OC(F)F [Example 154, (5R)-2-Amino-5-[4-(difluoromethoxy)-3-ethylphenyl]-5-[4-fluoro-3-(3-methylbut-1-yn-1-yl)phenyl]-3-methyl-3,5-dihydro-4H-imidazol-4-one] | 
24 | < 0.1 µM | CCc1cc([C@]2(c3ccc(F)c(C#CCC(C)C)c3)N=C(N)N(C)C2=O)ccc1OC(F)F [Example 150, (5R)-2-Amino-5-[4-(difluoromethoxy)-3-ethylphenyl]-5-[4-fluoro-3-(4-methylpent-1-yn-1-yl)phenyl]-3-methyl-3,5-dihydro-4H-imidazol-4-one] | 
25 | < 0.1 µM | CCOc1cc(C2(c3ccc(OC(F)F)c(Cl)c3)N=C(N)N(C)C2=O)ccc1F (stereo not shown) [Example 96, 2-Amino-5-[3-chloro-4-(difluoromethoxy)phenyl]-5-(3-ethoxy-4-fluorophenyl)-3-methyl-3,5-dihydro-4H-imidazol-4-one] | 
26 | < 0.1 µM | CCOc1cc(C2(c3ccc(OC(F)F)c(C)c3)N=C(N)N(C)C2=O)ccc1F (stereo not shown) [Example 101, 2-Amino-5-[4-(difluoromethoxy)-3-methylphenyl]-5-(3-ethoxy-4-fluorophenyl)-3-methyl-3,5-dihydro-4H-imidazol-4-one] | 
27 | < 0.1 µM | CCc1cc(C2(c3cccc(C#CCF)c3)N=C(N)N(C)C2=O)ccc1OC(F)F (stereo not shown) [Example 158, 2-Amino-5-[4-(difluoromethoxy)-3-ethylphenyl]-5-[3-(3-fluoroprop-1-yn-1-yl)phenyl]-3-methyl-3,5-dihydro-4H-imidazol-4-one] | 
28 | < 0.1 µM | CCCC#Cc1cccc([C@@]2(c3ccc(OC(F)F)c(C)c3)N=C(N)N(C)C2=O)c1 [Example 78, (5S)-2-amino-5-[4-(difluoromethoxy)-3-methylphenyl]-3-methyl-5-(3-pent-1-yn-1-ylphenyl)-3,5-dihydro-4H-imidazol-4-one] | 
29 | < 0.1 µM | Cc1cc(C2(c3ccc(F)c(OCCF)c3)N=C(N)N(C)C2=O)ccc1OC(F)F (stereo not shown) [Example 109, 2-Amino-5-[4-(difluoromethoxy)-3-methylphenyl]-5-[4-fluoro-3-(2-fluoroethoxy)phenyl]-3-methyl-3,5-dihydro-4H-imidazol-4-one] | 
30 | < 0.1 µM | CCc1cc(C2(c3ccc(F)c(C#CC(C)C)c3)N=C(N)N(C)C2=O)ccc1OC(F)F (stereo not shown) [Example 153, 2-Amino-5-[4-(difluoromethoxy)-3-ethylphenyl]-5-[4-fluoro-3-(3-methylbut-1-yn-1-yl)phenyl]-3-methyl-3,5-dihydro-4H-imidazol-4-one] | 
31 | < 0.1 µM | CN1C(=O)C(c2ccc(F)c(C#CCF)c2)(c2ccc(OC(F)F)c(C3CC3)c2)N=C1N (stereo not shown) [Example 210, 2-amino-5-[3-cyclopropyl-4-(difluoromethoxy)phenyl]-5-[4-fluoro-3-(3-fluoroprop-1-yn-1-yl)phenyl]-3-methyl-3,5-dihydro-4H-imidazol-4-one] | 
